# In patent US20220031596A1, “ANTI-AGING AGENT AND ANTI-AGING METHOD” (priority 2018, published 2022):
# Tests used:
# [1] = tested on: melatonin concentration in the plasma; test: Evaluation of melatonin secretion promoting effect (plasma melatonin, 24-week oral ingestion); type: in vivo, human; settings: for melatonin concentration in the plasma, 0 weeks (before ingestion): baseline; for melatonin concentration in the plasma, 0 weeks (before ingestion) / melatonin concentration in the plasma, 24 weeks (after ingestion) / melatonin concentration in the plasma, Change rate (24 weeks - 0 weeks): mean±SD
# Experimental: In order to confirm a change in the melatonin quantity before and after ingestion of the nicotinamide mononucleotide, a test was conducted on healthy males and females aged 50 to 70 years.
# As a sample of Working Example 1, a capsule formulation containing the nicotinamide mononucleotide and starch (100 mg (low dose) and 200 mg (high dose) of the nicotinamide mononucleotide in 4 capsules) (manufactured by SHINKOWA PHARMACEUTICAL Co., Ltd.) was used.
# (§1) Each group consisting of five healthy males and females aged 50 to 70 years in an unbiased age group ingested the above low dose capsule formulation once a day by 4 capsules for 24 weeks (total 10 subjects, a low dose group: 100 mg/daily ingestion). On the other hand, each group consisting of five healthy males and females aged 50 to 70 years in the unbiased age group ingested the above high dose capsule formulation once a day by 4 capsules for 24 weeks (total 10 subjects, a high dose group: 200 mg/daily ingestion). In order to conduct appropriate evaluations, those who had been regularly using medical products for chronic diseases, those who had been consuming healthy foods that may affect clinical research, and those who were currently participating in other clinical researches or clinical trials, or had participated in other clinical researches or clinical trials within the last three months were excluded from the subject for the evaluation. The capsule formulations were ingested at 10 am (between meals and fasting state) together with water or lukewarm water (oral administration).
# Measurement of the melatonin quantity in plasma was conducted by requesting the measurement to an external public organization according to a usual method. FIGS. 2a to 2c indicates transitions of the melatonin concentration (pg/ml) in the plasma for 24 weeks. FIG. 2a represents the transitions of the whole subjects; FIG. 2b represents the transitions of the male subjects; FIG. 2c represents the transitions of the female subjects. FIGS. 3a to 3c indicates change rates (%) of the blood melatonin concentration up to 24 weeks when the nicotinamide mononucleotide was orally administered to the subjects for 24 weeks. FIG. 3a represents the change rates of the whole subjects; FIG. 3b represents the change rates of the male subjects; FIG. 3c represents the change rates of the female subjects. Further, Table 1 indicates the numerical values of the melatonin concentration (pg/ml) in the plasma before the ingestion of the nicotinamide mononucleotide (0 weeks) and after the ingestion of the nicotinamide mononucleotide (24 weeks). In addition, the numerical values represent mean values±standard deviation.
# [2] = tested on: prolactin concentration in the plasma; test: Evaluation of prolactin secretion promoting effect (plasma prolactin, 24-week oral ingestion); type: in vivo, human; settings: for prolactin concentration in the plasma, 0 weeks (before ingestion) / prolactin concentration in the plasma, 24 weeks (after ingestion) / prolactin concentration in the plasma, Change rate (24 weeks - 0 weeks): Low Dose Group (100 mg/daily, oral), mean±SD; for prolactin concentration in the plasma, 0 weeks (before ingestion): baseline
# Experimental: In order to confirm a change in the prolactin quantity before and after ingestion of the nicotinamide mononucleotide, a test was conducted on healthy males and females aged 50 to 70 years.
# As a sample of Working Example 9, a capsule formulation containing the nicotinamide mononucleotide and starch (100 mg of the nicotinamide mononucleotide in 4 capsules) (manufactured by SHINKOWA PHARMACEUTICAL Co., Ltd.) was used.
# as §1, with “above” for “above low dose capsule formulation once a day by 4 capsules for 24 weeks (total 10 subjects, a low dose group: 100 mg/daily ingestion). On the other hand, each group consisting of five healthy males and females aged 50 to 70 years in the unbiased age group ingested the above”, “100” for “a high dose group: 200”, “trials” for “trials,”
# Measurement of the prolactin quantity in the plasma was conducted by requesting the measurement to an external public organization according to a usual method. FIGS. 18a to 18c indicate transitions of the prolactin concentration (ng/ml) in the plasma for 24 weeks. FIG. 18a represents the transitions of the whole subjects; FIG. 18b represents the transitions of the male subjects; FIG. 18c represents the transitions of the female subjects. Further, FIGS. 19a to 19c indicate change rates (%) of the blood prolactin concentration up to 24 weeks when the nicotinamide mononucleotide was orally administered to the subjects for 24 weeks. FIG. 19a represents the change rates of the whole subjects; FIG. 19b represents the change rates of the male subjects; FIG. 19c represents the change rates of the female subjects. Further, Table 9 indicates the numerical values of the prolactin concentration (ng/ml) in the plasma before the ingestion of the nicotinamide mononucleotide (0 weeks) and after the ingestion of the nicotinamide mononucleotide (24 weeks). Note that the numerical values represent mean values±standard deviation.
# [3] = Female, High Dose Group (200 mg/daily, oral)
# [4] = Female, Low Dose Group (100 mg/daily, oral)
# [5] = Male, High Dose Group (200 mg/daily, oral)
# [6] = Male, Low Dose Group (100 mg/daily, oral)
# [7] = Whole Subjects, High Dose Group (200 mg/daily, oral)
# [8] = Whole Subjects, Low Dose Group (100 mg/daily, oral)
smiles,measurement,setting,value
NC(=O)c1ccc[n+]([C@@H]2O[C@H](COP(=O)([O-])O)[C@@H](O)[C@H]2O)c1 [nicotinamide mononucleotide],"melatonin concentration in the plasma, 0 weeks (before ingestion)",[1]; [3],5.77 ± 3.00 pg/mL
same,"melatonin concentration in the plasma, 24 weeks (after ingestion)",[1]; [3],11.81 ± 8.17 pg/mL
same,"melatonin concentration in the plasma, Change rate (24 weeks - 0 weeks)",[1]; [3],6.03 ± 5.90 pg/mL
same,"melatonin concentration in the plasma, 0 weeks (before ingestion)",[1]; [4],7.15 ± 4.51 pg/mL
same,"melatonin concentration in the plasma, 24 weeks (after ingestion)",[1]; [4],9.37 ± 4.85 pg/mL
same,"melatonin concentration in the plasma, Change rate (24 weeks - 0 weeks)",[1]; [4],2.21 ± 3.19 pg/mL
same,"melatonin concentration in the plasma, 0 weeks (before ingestion)",[1]; [5],3.82 ± 1.41 pg/mL
same,"melatonin concentration in the plasma, 24 weeks (after ingestion)",[1]; [5],6.68 ± 4.04 pg/mL
same,"melatonin concentration in the plasma, Change rate (24 weeks - 0 weeks)",[1]; [5],2.86 ± 3.10 pg/mL
same,"melatonin concentration in the plasma, 0 weeks (before ingestion)",[1]; [6],2.76 ± 1.71 pg/mL
same,"melatonin concentration in the plasma, 24 weeks (after ingestion)",[1]; [6],6.20 ± 3.60 pg/mL
same,"melatonin concentration in the plasma, Change rate (24 weeks - 0 weeks)",[1]; [6],3.44 ± 3.57 pg/mL
same,"melatonin concentration in the plasma, 0 weeks (before ingestion)",[1]; [7],4.80 ± 2.44 pg/mL
same,"melatonin concentration in the plasma, Change rate (24 weeks - 0 weeks)",[1]; [7],4.45 ± 4.75 pg/mL
same,"melatonin concentration in the plasma, 0 weeks (before ingestion)",[1]; [8],4.96 ± 3.96 pg/mL
same,"melatonin concentration in the plasma, 24 weeks (after ingestion)",[1]; [8],7.78 ± 4.36 pg/mL
same,"melatonin concentration in the plasma, Change rate (24 weeks - 0 weeks)",[1]; [8],2.82 ± 3.26 pg/mL
same,"melatonin concentrations in the plasma compared to before ingestion, statistical significance","[1]; as a whole, both the low dose group and the high dose group, p<0.05",a significant difference was observed
same,"melatonin concentrations in plasma, effect of ingestion (in words)","[1]; oral, 100 or 200 mg/daily, 24 weeks, FIGS. 2a-2c, 3a-3c",increased
same,"prolactin concentration in the plasma, 0 weeks (before ingestion)",[2]; Female,8.50 ± 2.71 ng/mL
same,"prolactin concentration in the plasma, 24 weeks (after ingestion)",[2]; Female,10.15 ± 3.22 ng/mL
same,"prolactin concentration in the plasma, Change rate (24 weeks - 0 weeks)",[2]; Female,1.66 ± 4.32 ng/mL
same,"prolactin concentration in the plasma, 0 weeks (before ingestion)",[2]; Male,9.23 ± 1.92 ng/mL
same,"prolactin concentration in the plasma, 24 weeks (after ingestion)",[2]; Male,9.58 ± 2.47 ng/mL
same,"prolactin concentration in the plasma, Change rate (24 weeks - 0 weeks)",[2]; Male,0.35 ± 1.40 ng/mL
same,"prolactin concentration in the plasma, 0 weeks (before ingestion)",[2]; Whole Subjects,8.86 ± 2.25 ng/mL
same,"prolactin concentration in the plasma, 24 weeks (after ingestion)",[2]; Whole Subjects,9.87 ± 2.72 ng/mL
same,"prolactin concentration in the plasma, Change rate (24 weeks - 0 weeks)",[2]; Whole Subjects,1.00 ± 3.10 ng/mL
same,"prolactin concentrations in the plasma, effect of ingestion (in words)","[2]; oral, 100 mg/daily, 24 weeks, FIGS. 18a-18c, 19a-19c",increased
